Reference: US12655116B2, “Substituted isophthalic acid diamides” (Bayer Aktiengesellschaft, priority 2020, dated 2026)

Assays:
POLCO [1] = test: Pre-emergence herbicidal action against POLCO; format: in vivo, Polygonum convolvulus; settings: Fallopia convolvulus, 504 h, dosage 320 g/ha
Summary of the method: (§1)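 Visual rating at 3 weeks vs untreated pots; 0–100% scale, 100% = plants died. Treatment: aqueous WP/EC spray onto covering soil, 600–800 l/ha, 0.2% wetter, seeds in sandy loam.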

ABUTH [2] = test: Post-emergence herbicidal action against ABUTH; format: in vivo, Abutilon theophrasti; settings: Abutilon theophrasti, 504 h, visual assessment about 3 weeks after treatment vs untreated controls; for pest or weed control at 20 g/ha: dosage 20 g/ha; for pest or weed control at 80 g/ha: dosage 80 g/ha
Summary of the method: (§2)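 Greenhouse pot plants in sandy loam were sprayed at the one-leaf stage, 2 to 3 weeks after sowing, with WP or EC formulations as aqueous suspension or emulsion (600 to 800 l/ha water, 0.2% wetting agent). About 3 weeks later, damage was scored visually against untreated controls as % action (100% = dead, 0% = like control).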

LOLRI [3] = test: Pre-emergence herbicidal action against LOLRI; format: in vivo, Lolium rigidum; settings: Lolium rigidum, 504 h, 320 g/ha
Summary of the method: as §1

VIOTR [4] = test: Post-emergence herbicidal action against VIOTR; format: in vivo, Viola tricolor; settings: Viola tricolor, 504 h
Summary of the method: as §2

MATIN = test: Pre-emergence herbicidal action against MATIN; format: in vivo, Matricaria inodora; settings: Tripleurospermum inodorum, 504 h; for pest or weed control at 80 g/ha: dosage 80 g/ha; for pest or weed control at 320 g/ha: dosage 320 g/ha
Summary of the method: as §1

SETVI [5] = test: Post-emergence herbicidal action against SETVI; format: in vivo, Setaria viridis; settings: Setaria viridis, 504 h; for pest or weed control at 80 g/ha: dosage 80 g/ha
Summary of the method: as §2

STEME [6] = test: Pre-emergence herbicidal action against STEME; format: in vivo, Stellaria media; settings: Stellaria media, 504 h; for pest or weed control at 80 g/ha: dosage 80 g/ha; for pest or weed control at 320 g/ha: dosage 320 g/ha
Summary of the method: as §1

ECHCG = test: Pre-emergence herbicidal action against ECHCG; format: in vivo, Echinochloa crus-galli; settings: Echinochloa crus-galli, 504 h
Summary of the method: as §1

POLCO [7] = test: Post-emergence herbicidal action against POLCO; format: in vivo, Polygonum convolvulus; settings: Fallopia convolvulus, 504 h
Summary of the method: as §2

VERPE [8] = test: Pre-emergence herbicidal action against VERPE; format: in vivo, Veronica persica; settings: Veronica persica, 504 h; for pest or weed control at 80 g/ha: dosage 80 g/ha; for pest or weed control at 320 g/ha: dosage 320 g/ha
Summary of the method: as §1

AMARE [9] = test: Pre-emergence herbicidal action against AMARE; format: in vivo, Amaranthus retroflexus; settings: Amaranthus retroflexus, 504 h, 100% = plants have died, 0% = like control plants; for pest or weed control at 320 g/ha: scored visually after 3 weeks
Summary of the method: as §1

SETVI [10] = test: Pre-emergence herbicidal action against SETVI; format: in vivo, Setaria viridis; settings: Setaria viridis, 504 h; for pest or weed control at 80 g/ha: dosage 80 g/ha; for pest or weed control at 320 g/ha: dosage 320 g/ha
Summary of the method: as §1

ABUTH [11] = test: Pre-emergence herbicidal action against ABUTH; format: in vivo, Abutilon theophrasti; settings: Abutilon theophrasti, 504 h; for pest or weed control at 80 g/ha: scored visually after 3 weeks vs untreated controls (100% = plants have died, 0% = like control plants); for pest or weed control at 320 g/ha: Dosage: 320 g/ha, scored visually after 3 weeks
Summary of the method: as §1

ALOMY = test: Pre-emergence herbicidal action against ALOMY; format: in vivo, Alopecurus myosuroides; settings: Alopecurus myosuroides, 504 h, pre-emergence; for pest or weed control at 80 g/ha: scored visually after 3 weeks vs untreated controls (100% = plants have died, 0% = like control plants); for pest or weed control at 320 g/ha: scored visually after 3 weeks, 100% = plants have died, 0% = like control plants
Summary of the method: as §1

LOLRI [12] = test: Post-emergence herbicidal action against LOLRI; format: in vivo, Lolium rigidum; settings: Lolium rigidum, 504 h, dosage 80 g/ha
Summary of the method: as §2

AMARE [13] = test: Post-emergence herbicidal action against AMARE; format: in vivo, Amaranthus retroflexus; settings: Amaranthus retroflexus, 504 h, visual assessment about 3 weeks after treatment, 100% = plants have died, 0% = like control plants
Summary of the method: as §2

HORMU [14] = test: Pre-emergence herbicidal action against HORMU; format: in vivo, Hordeum murinum; settings: Hordeum murinum, 504 h, pre-emergence
Summary of the method: as §1

AVEFA = test: Pre-emergence herbicidal action against AVEFA; format: in vivo, Avena fatua; settings: Avena fatua, 504 h, pre-emergence; for pest or weed control at 320 g/ha: scored visually after 3 weeks, 100% = plants have died, 0% = like control plants
Summary of the method: as §1

VERPE [15] = test: Post-emergence herbicidal action against VERPE; format: in vivo, Veronica persica; settings: Veronica persica, 504 h
Summary of the method: as §2

STEME [16] = test: Post-emergence herbicidal action against STEME; format: in vivo, Stellaria media; settings: Stellaria media, 504 h
Summary of the method: as §2

VIOTR [17] = test: Pre-emergence herbicidal action against VIOTR; format: in vivo, Viola tricolor; settings: Viola tricolor, 504 h; for pest or weed control at 80 g/ha: dosage 80 g/ha; for pest or weed control at 320 g/ha: dosage 320 g/ha
Summary of the method: as §1

HORMU [18] = test: Post-emergence herbicidal action against HORMU; format: in vivo, Hordeum murinum; settings: Hordeum murinum, 504 h; for pest or weed control at 80 g/ha: dosage 80 g/ha
Summary of the method: as §2

PHBPU = test: Post-emergence herbicidal action against PHBPU; format: in vivo, Pharbitis purpurea; settings: Ipomoea purpurea, 504 h, dosage 80 g/ha
Summary of the method: as §2

[19] = scored visually after 3 weeks vs untreated controls
[20] = 100% = plants have died, 0% = like control plants

For `CCNC(=O)c1c(C(F)F)ccc(C(=O)Nc2nnnn2CC)c1Cl` [Example 2-148], the pest or weed control at 320 g/ha (POLCO [1]) was 100%, the pest or weed control at 20 g/ha (ABUTH [2]) was 90% and the pest or weed control at 80 g/ha (ABUTH [2]) was 90%. For the same compound, the pest or weed control at 320 g/ha (LOLRI [3]) was 90%, the pest or weed control at 80 g/ha (VIOTR [4]) was 80% and the pest or weed control at 80 g/ha (MATIN) was 100%. The pest or weed control at 320 g/ha (MATIN) was 100%, the pest or weed control at 80 g/ha (SETVI [5]) was 80% and the pest or weed control at 80 g/ha (STEME [6]) was 90%. For the same compound, the pest or weed control at 320 g/ha (STEME [6]) was 100%, the pest or weed control at 80 g/ha (ECHCG) was 100% and the pest or weed control at 320 g/ha (ECHCG) was 100%. For the same compound, the pest or weed control at 20 g/ha (POLCO [7]; dosage 20 g/ha) was 90%, the pest or weed control at 80 g/ha (POLCO [7]; dosage 80 g/ha) was 90% and the pest or weed control at 80 g/ha (VERPE [8]) was 80%. For the same compound, the pest or weed control at 320 g/ha (VERPE [8]) was 100%, the pest or weed control at 80 g/ha (AMARE [9]; [19]) was 100% and the pest or weed control at 320 g/ha (AMARE [9]) was 100%. It also gave a pest or weed control at 80 g/ha (SETVI [10]) of 100%, a pest or weed control at 320 g/ha (SETVI [10]) of 100% and a pest or weed control at 80 g/ha (ABUTH [11]) of 100%. It also gave a pest or weed control at 320 g/ha (ABUTH [11]; [20]) of 100%, a pest or weed control at 80 g/ha (ALOMY) of 90% and a pest or weed control at 320 g/ha (ALOMY) of 100%. For the same compound, the pest or weed control at 80 g/ha (LOLRI [12]) was 80%, the pest or weed control at 20 g/ha (AMARE [13]) was 90% and the pest or weed control at 80 g/ha (AMARE [13]) was 90%. For the same compound, the pest or weed control at 80 g/ha (HORMU [14]) was 90%, the pest or weed control at 320 g/ha (HORMU [14]) was 100% and the pest or weed control at 80 g/ha (AVEFA) was 100%. The pest or weed control at 320 g/ha (AVEFA) was 100%, the pest or weed control at 20 g/ha (VERPE [15]) was 80% and the pest or weed control at 80 g/ha (VERPE [15]) was 90%. For the same compound, the pest or weed control at 20 g/ha (STEME [16]) was 80%, the pest or weed control at 80 g/ha (STEME [16]) was 80% and the pest or weed control at 80 g/ha (VIOTR [17]) was 100%. It also gave a pest or weed control at 320 g/ha (VIOTR [17]) of 100%, a pest or weed control at 20 g/ha (HORMU [18]; dosage 20 g/ha) of 80% and a pest or weed control at 80 g/ha (HORMU [18]) of 90%.
Compound `CCn1nnnc1NC(=O)c1ccc(C(F)(F)F)c(C(N)=O)c1Cl` [Example 2-338] has a pest or weed control at 80 g/ha (PHBPU) of 90%, a pest or weed control at 320 g/ha (POLCO [1]) of 90% and a pest or weed control at 5 g/ha (ABUTH [2]; dosage 5 g/ha) of 100%. For the same compound, the pest or weed control at 20 g/ha (ABUTH [2]) was 100%, the pest or weed control at 80 g/ha (ABUTH [2]) was 100% and the pest or weed control at 320 g/ha (LOLRI [3]) was 100%. It also gave a pest or weed control at 20 g/ha (VIOTR [4]; 20 g/ha) of 100%, a pest or weed control at 80 g/ha (VIOTR [4]) of 100% and a pest or weed control at 80 g/ha (MATIN) of 90%. The pest or weed control at 320 g/ha (MATIN) was 100%, the pest or weed control at 20 g/ha (SETVI [5]; dosage 20 g/ha) was 80% and the pest or weed control at 80 g/ha (SETVI [5]) was 100%. It also gave a pest or weed control at 80 g/ha (STEME [6]) of 90%, a pest or weed control at 320 g/ha (STEME [6]) of 100% and a pest or weed control at 80 g/ha (ECHCG) of 90%. For the same compound, the pest or weed control at 320 g/ha (ECHCG) was 100%, the pest or weed control at 80 g/ha (VERPE [8]) was 100% and the pest or weed control at 320 g/ha (VERPE [8]) was 100%. For the same compound, the pest or weed control at 20 g/ha (AMARE [9]; 20 g/ha, scored visually after 3 weeks vs untreated controls) was 90%, the pest or weed control at 80 g/ha (AMARE [9]; [19]) was 100% and the pest or weed control at 320 g/ha (AMARE [9]) was 100%. It also gave a pest or weed control at 80 g/ha (SETVI [10]) of 90%, a pest or weed control at 320 g/ha (SETVI [10]) of 100% and a pest or weed control at 80 g/ha (ABUTH [11]) of 100%. For the same compound, the pest or weed control at 320 g/ha (ABUTH [11]; [20]) was 100%, the pest or weed control at 20 g/ha (ABUTH [11]; dosage 20 g/ha, scored visually after 3 weeks vs untreated controls, 100% = plants have died, 0% = like control plants, read-out: Pre-emergence action against ABUTH (herbicidal activity in percent)) was 90% and the pest or weed control at 80 g/ha (ALOMY) was 90%. The pest or weed control at 320 g/ha (ALOMY) was 100%, the pest or weed control at 80 g/ha (LOLRI [12]) was 90% and the pest or weed control at 20 g/ha (AMARE [13]) was 100%. For the same compound, the pest or weed control at 80 g/ha (AMARE [13]) was 100%, the pest or weed control at 80 g/ha (HORMU [14]) was 80% and the pest or weed control at 320 g/ha (HORMU [14]) was 100%. It also gave a pest or weed control at 80 g/ha (AVEFA) of 90%, a pest or weed control at 320 g/ha (AVEFA) of 100% and a pest or weed control at 20 g/ha (VERPE [15]) of 90%. The pest or weed control at 80 g/ha (VERPE [15]) was 100%, the pest or weed control at 20 g/ha (STEME [16]) was 90% and the pest or weed control at 80 g/ha (STEME [16]) was 100%. It also gave a pest or weed control at 80 g/ha (VIOTR [17]) of 100%, a pest or weed control at 320 g/ha (VIOTR [17]) of 100% and a pest or weed control at 80 g/ha (HORMU [18]) of 100%.
